What all share (format): functional, cell-based
For one test, the system named is PC-3. Nature of the test: Cytotoxicity against human PC3 cells after 72 hrs. To be noted: PC-3, 72 h.
A further test relates to MCF7. The experiment in a line: Cytotoxicity against human MCF7 cells after 72 hrs. The note with it: MCF7, 72 h.
The subject of another test is A549. Nature of the test: Cytotoxicity against human A549 cells after 72 hrs. To be noted: A549, 72 h.
The next test deals with NCI-H460. The experiment in a line: Cytotoxicity against human H460 cells after 72 hrs. To be noted: NCI-H460, 72 h.
In another test the test system is OVCAR-3. Nature of the test: Cytotoxicity against human OVCAR-3 cells after 72 hrs.

Calls of active or inactive are those of the source. The rule behind the calls is not given here. Some results are limits rather than exact numbers.

One may read the IC50 as the concentration at which inhibition is half-maximal. Lower therefore signals higher potency. Regarding `CCNc1nc(N)c2ncnc-2c(N)n1`, the IC50 in the test on PC-3 was over 800 µM; in the test on MCF7 it was over 800 µM; in the test with A549, 38 µM; in the test on NCI-H460 it was 22 µM. Besides, the outcome in the test with OVCAR-3 was Active.

The record behind these values is ChEMBL document CHEMBL1208731, “A novel, broad-spectrum anticancer compound containing the imidazo[4,5-e][1,3]diazepine ring system” (Bioorg Med Chem Lett, 2010).
